These results are taken from patent publication US20260042755A1, “GPR6 INVERSE AGONISTS” (MapLight Therapeutics, Inc., priority 2022, published 2026).

Each structure is given as a SMILES string.

One assay addresses T1, GPR6 (Homo sapiens, UniProt P46095).
T1 construct: expressed in transfected cells; host or cells: CHO cells
The experiment in a line: GPR6 antagonist functional cAMP assay (LANCE Ultra cAMP TR-FRET, CHO cells stably expressing GPR6). Type of assay: cell-based. In short, it runs like this: (§1)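 10,000 cells/well; KRB buffer + 0.1% BSA + 150 μM Ro 20-1724; cpd 45 min, 37 °C, 0.1% DMSO; TR-FRET cAMP, 665 nm; 4-PL fit, normalized to DMSO (0.1%) and reference (100%) → IC50.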
(Changes in cAMP serve as a functional read-out for many G protein-coupled receptors.)

A further assay deals with T2, GPR3 (Homo sapiens, UniProt P46089).
T2 construct: expressed in transfected cells; host or cells: CHO cells
T2 sequence (P46089 whole entry, species assumed): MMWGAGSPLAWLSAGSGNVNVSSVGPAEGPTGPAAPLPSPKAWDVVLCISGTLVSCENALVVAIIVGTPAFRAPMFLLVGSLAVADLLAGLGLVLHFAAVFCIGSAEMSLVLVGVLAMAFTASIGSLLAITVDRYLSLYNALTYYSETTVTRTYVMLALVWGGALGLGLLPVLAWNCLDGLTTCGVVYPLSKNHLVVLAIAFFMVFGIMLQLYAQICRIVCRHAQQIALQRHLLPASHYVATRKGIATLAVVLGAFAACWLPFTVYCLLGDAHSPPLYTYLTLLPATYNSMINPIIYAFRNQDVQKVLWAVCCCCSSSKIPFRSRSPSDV
Put plainly: GPR3 antagonist functional cAMP assay (LANCE Ultra cAMP TR-FRET, CHO cells stably expressing GPR3). It counts as cell-based. The method, boiled down:
as §1

[1] abbreviates: CHO cells stably expressing GPR6, cAMP assay (Example 24).
Setting [2] is: CHO cells stably expressing GPR3, cAMP assay (Example 24).
The mark [3] stands for this setting: CHO cells stably expressing GPR6, cAMP assay.
Setting [4] is: CHO cells stably expressing GPR3, cAMP assay.
Where [5] appears, read: procedure as described in Example 24.

T1 sequence (P46095 whole entry): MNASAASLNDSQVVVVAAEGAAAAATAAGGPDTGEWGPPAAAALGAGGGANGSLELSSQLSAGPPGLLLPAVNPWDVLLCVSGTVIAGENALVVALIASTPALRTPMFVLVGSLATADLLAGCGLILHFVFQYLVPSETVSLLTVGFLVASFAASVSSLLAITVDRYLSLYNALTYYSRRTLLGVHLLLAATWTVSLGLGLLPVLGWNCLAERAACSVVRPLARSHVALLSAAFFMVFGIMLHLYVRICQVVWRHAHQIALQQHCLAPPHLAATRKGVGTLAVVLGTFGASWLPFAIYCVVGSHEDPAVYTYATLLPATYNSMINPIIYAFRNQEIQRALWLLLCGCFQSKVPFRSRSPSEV

Consider `O=C(N1CCOCC1)N1CCc2nc(N3CCC(Oc4ccc(F)cc4F)CC3)c(-c3cn[nH]c3)nc2C1` [Compound 120, 4-{2-[4-(2,4-difluorophenoxy)piperidin-1-yl]-3-(1H-pyrazol-4-yl)-5H,6H,7H,8H-pyrido[3,4-b]pyrazine-6-carbonyl}morpholine], for which the IC50 – broadly, the concentration at which inhibition is half-maximal – was in the range of 100 to 1000 nM on GPR6 (setting [1]) and 1000 to 30000 nM against GPR3 (setting [2]).
Consider `CC(C)(O)[C@@H](O)c1cc2nc(N3CCC(Oc4ccc(F)cc4F)CC3)c(-c3cnn(CF)c3)nc2cn1` (single isomer, unassigned) [Compound 597], for which the IC50 against GPR6 (setting [3]) lay in the range of 100 to 1000 nM; against GPR3 (setting [4]), 1000 to 30000 nM.
Consider `Cn1cc(-c2nc3cnc(C(O)C(C)(C)O)cc3nc2N2CCC(Oc3ccc(F)cc3F)CC2)cn1` (stereo not drawn) [Compound 263, 1-(2-(4-(2,4-difluorophenoxy)piperidin-1-yl)-3-(1-methyl-1H-pyrazol-4-yl)pyrido[3,4-b]pyrazin-7-yl)-2-methylpropane-1,2-diol], for which the IC50 on GPR6 (setting [1]) was in the range of 100 to 1000 nM; at GPR3 (setting [2]) it was 1000 to 30000 nM.
On to `CC(C)(O)[C@H](O)c1cc2nc(N3CCN(Cc4ccc(F)cc4F)CC3)c(-c3cnn(C4CC4)c3)nc2cn1` (single isomer, unassigned) [Compound 576], for which the IC50 against GPR6 (setting [3]) was in the range of 100 to 1000 nM; against GPR3 (setting [4]), 1000 to 30000 nM.
Regarding `CC(=O)N1CCc2nc(N3CCC(Oc4ccc(F)cc4F)CC3)c(-c3ncc[nH]3)nc2C1` [Compound 40, 1-(2-(4-(2,4-difluorophenoxy)piperidin-1-yl)-3-(1H-imidazol-2-yl)-7,8-dihydropyrido[3,4-b]pyrazin-6(5H)-yl)ethan-1-one], the IC50 on GPR6 (setting [5]) and at GPR3 (setting [5]) was 1000 to 30000 nM each time.
As to `CC(=O)N1CCc2nc(N3CCC(Oc4ccc(F)cc4F)CC3)c(-c3ccc(=O)[nH]c3)nc2C1` [Compound 51, 5-{6-acetyl-2-[4-(2,4-difluorophenoxy)piperidin-1-yl]-5H,6H,7H,8H-pyrido[3,4-b]pyrazin-3-yl}-1,2-dihydropyridin-2-one], the IC50 against GPR6 (setting [5]) lay in the range of 100 to 1000 nM; against GPR3 (setting [5]), 1000 to 30000 nM.
As for `CNC(=O)C(C)N1CCc2nc(N3CCC(Oc4ccc(F)cc4F)CC3)c(-c3cn[nH]c3)nc2C1` (stereo not drawn) [Compound 147, 2-{2-[4-(2,4-difluorophenoxy)piperidin-1-yl]-3-(1H-pyrazol-4-yl)-5H,6H,7H,8H-pyrido[3,4-b]pyrazin-6-yl}-N-methylpropanamide], the IC50 on GPR6 (setting [1]) and on GPR3 (setting [2]) was 1000 to 30000 nM throughout.
Take `CC(C)(O)[C@H](O)c1cc2nc(-c3cn[nH]c3)c(N3CCN(Cc4ccc(F)cc4F)CC3)nc2cn1` (single isomer, unassigned) [Compound 799]: the IC50 on GPR6 (procedure of Example 24) and at GPR3 (procedure of Example 24) was 1000 to 30000 nM each time.
Consider `Cn1cc(-c2nc3cnc(C#N)cc3nc2N2CCC(Oc3ccc(F)cc3F)CC2)cn1` [Compound 293, 2-[4-(2,4-difluorophenoxy)piperidin-1-yl]-3-(1-methyl-1H-pyrazol-4-yl)pyrido[3,4-b]pyrazine-7-carbonitrile], for which the IC50 against GPR6 (procedure of Example 24) and against GPR3 (procedure of Example 24) was 1000 to 30000 nM in each case.
For the molecule `CC(=O)N1CCc2nc(N3CCC(Oc4ccc(F)cc4F)CC3)c(-c3ccnc(Cl)n3)nc2C1` [Compound 466, 1-[3-(2-chloropyrimidin-4-yl)-2-[4-(2,4-difluorophenoxy)piperidin-1-yl]-5H,6H,7H,8H-pyrido[3,4-b]pyrazin-6-yl]ethan-1-one], the IC50 against GPR6 (setting [1]) and against GPR3 (setting [2]) was 1000 to 30000 nM throughout.
`COc1cc(-c2nc3c(nc2N2CCC(Oc4ccc(F)cc4F)CC2)CCN(C(C)=O)C3)cnn1` [Compound 235, 1-{2-[4-(2,4-difluorophenoxy)piperidin-1-yl]-3-(6-methoxypyridazin-4-yl)-5H,6H,7H,8H-pyrido[3,4-b]pyrazin-6-yl}ethan-1-one]: the IC50 against GPR6 (setting [1]) and against GPR3 (setting [2]) was 1000 to 30000 nM each time.
With `Fc1ccc(OC2CCN(c3nc4c(nc3-c3cn[nH]c3)CN(C3COC3)CC4)CC2)c(F)c1` [Compound 199, 4-(2,4-difluorophenoxy)-1-[6-(oxetan-3-yl)-3-(1H-pyrazol-4-yl)-5H,6H,7H,8H-pyrido[3,4-b]pyrazin-2-yl]piperidine], the figures for the IC50 at GPR6 (setting [1]) and at GPR3 (setting [2]) were 100 to 1000 nM and 1000 to 30000 nM, respectively.
For `Cn1cc(-c2nc3cnc(N4CCOCC4)cc3nc2N2CCC(Oc3ccc(F)cc3F)CC2)cn1` [Compound 449, 4-{2-[4-(2,4-difluorophenoxy)piperidin-1-yl]-3-(1-methyl-1H-pyrazol-4-yl)pyrido[3,4-b]pyrazin-7-yl}morpholine] the same measures were 1000 to 30000 nM and 1000 to 30000 nM.
`CC(=O)N1CCc2nc(N3CCC(Oc4ccc(F)cc4F)CC3)c(-c3cnn(C(C)C)c3)nc2C1` [Compound 165, 1-{2-[4-(2,4-difluorophenoxy)piperidin-1-yl]-3-[1-(propan-2-yl)-1H-pyrazol-4-yl]-5H,6H,7H,8H-pyrido[3,4-b]pyrazin-6-yl}ethan-1-one]: the IC50 against GPR6 (setting [1]) was below 100 nM; on GPR3 (setting [2]) it was 1000 to 30000 nM.
For `CC(=O)N1CCc2nc(N3CCN(Cc4ccccc4C#N)CC3)c(-c3cnn(C)c3)nc2C1` [Compound 351, 2-({4-[6-acetyl-3-(1-methyl-1H-pyrazol-4-yl)-5H,6H,7H,8H-pyrido[3,4-b]pyrazin-2-yl]piperazin-1-yl}methyl)benzonitrile], the IC50 at GPR6 (procedure of Example 24) and on GPR3 (procedure of Example 24) was 1000 to 30000 nM each time.
`CC(=O)N1CCc2nc(N3CCN(Cc4cc(F)cc(F)c4)CC3)c(-c3cnn(C)c3)nc2C1` [Compound 353, 1-(2-{4-[(3,5-difluorophenyl)methyl]piperazin-1-yl}-3-(1-methyl-1H-pyrazol-4-yl)-5H,6H,7H,8H-pyrido[3,4-b]pyrazin-6-yl)ethan-1-one]: the concentration for half-maximal inhibition (IC50) against GPR6 (procedure of Example 24) and on GPR3 (procedure of Example 24) was 1000 to 30000 nM in each case.
Regarding `Cn1cc(-c2nc3cnc(C(=O)C(C)(C)O)cc3nc2N2CCC(Oc3ccc(F)cc3F)CC2)cn1` [Compound 413, 1-(2-(4-(2,4-difluorophenoxy)piperidin-1-yl)-3-(1-methyl-1H-pyrazol-4-yl)pyrido[3,4-b]pyrazin-7-yl)-2-hydroxy-2-methylpropan-1-one], the IC50 against GPR6 (setting [1]) fell in the range of 100 to 1000 nM; against GPR3 (setting [2]), 1000 to 30000 nM.
As for `Cn1cc(-c2nc3cc([C@@H](O)C(C)(C)O)ncc3nc2N2CCC(=Cc3ccc(F)cc3F)CC2)cn1` (single isomer, unassigned) [Compound 763], the IC50 at GPR6 (procedure of Example 24) was below 100 nM; on GPR3 (procedure of Example 24), 100 to 1000 nM.
For `COc1ncc(-c2nc3c(nc2N2CCC(Oc4ccc(F)cc4F)CC2)CCN(C(C)=O)C3)nc1OC` [Compound 215, 1-{2-[4-(2,4-difluorophenoxy)piperidin-1-yl]-3-(5,6-dimethoxypyrazin-2-yl)-5H,6H,7H,8H-pyrido[3,4-b]pyrazin-6-yl}ethan-1-one], the IC50 against GPR6 (setting [1]) lay within 100 to 1000 nM; on GPR3 (setting [2]) it was 1000 to 30000 nM.
Regarding `COc1ccc(CN2CCN(c3nc4c(nc3-c3cnn(C)c3)CN(C(C)=O)CC4)CC2)cn1` [Compound 345, 1-(2-{4-[(6-methoxypyridin-3-yl)methyl]piperazin-1-yl}-3-(1-methyl-1H-pyrazol-4-yl)-5H,6H,7H,8H-pyrido[3,4-b]pyrazin-6-yl)ethan-1-one], the IC50 on GPR6 (procedure of Example 24) and against GPR3 (procedure of Example 24) was 1000 to 30000 nM throughout.
As for `Fc1ccc(OC2CC=C(c3nc4ccncc4nc3-c3ncco3)CC2)c(F)c1` (stereo not drawn) [Compound 301, 2-{2-[4-(2,4-difluorophenoxy)cyclohex-1-en-1-yl]pyrido[3,4-b]pyrazin-3-yl}-1,3-oxazole], the IC50 at GPR6 (procedure of Example 24) and on GPR3 (procedure of Example 24) was 1000 to 30000 nM each time.
As to `CC(=O)N1CCc2nc(N3CCN(Cc4cc(Cl)ccc4Cl)CC3)c(-c3cnn(C)c3)nc2C1` [Compound 281, 1-(2-{4-[(2,5-dichlorophenyl)methyl]piperazin-1-yl}-3-(1-methyl-1H-pyrazol-4-yl)-5H,6H,7H,8H-pyrido[3,4-b]pyrazin-6-yl)ethan-1-one], the IC50 was below 100 nM against GPR6 (procedure of Example 24) and 1000 to 30000 nM on GPR3 (procedure of Example 24).
As to `COCCOc1cc2nc(N3CCC(Oc4ccc(F)cc4F)CC3)c(-c3cnn(C)c3)nc2cn1` [Compound 381, 4-(2,4-difluorophenoxy)-1-[7-(2-methoxyethoxy)-3-(1-methyl-1H-pyrazol-4-yl)pyrido[3,4-b]pyrazin-2-yl]piperidine], the IC50 against GPR6 (setting [1]) was in the range of 100 to 1000 nM; at GPR3 (setting [2]) it was 1000 to 30000 nM.
Turning to `CC(=O)N1CCc2nc(N3CCC(Oc4ccc(C#N)cc4F)CC3)c(-c3cnn(C)c3)nc2C1` [Compound 500, 4-{1-[6-acetyl-3-(1-methyl-4-pyrazolyl)-5,6,7,8-tetrahydro-1,4,6-triaza-2-naphthyl]-4-piperidyloxy}-3-fluorobenzonitrile], the IC50 against GPR6 (setting [3]) and against GPR3 (setting [4]) was 1000 to 30000 nM each time.
With `CCn1cc(-c2nc3c(nc2N2CCC(Oc4ccc(F)cc4F)CC2)CCN(C(=O)COC)C3)cn1` [Compound 275, 1-{2-[4-(2,4-difluorophenoxy)piperidin-1-yl]-3-(1-ethyl-1H-pyrazol-4-yl)-5H,6H,7H,8H-pyrido[3,4-b]pyrazin-6-yl}-2-methoxyethan-1-one], the IC50 against GPR6 (procedure of Example 24) was below 100 nM; on GPR3 (procedure of Example 24), 100 to 1000 nM.
Consider `CC(=O)N1CCc2nc(N3CCC(Oc4ccc(F)cc4F)CC3)c(-c3cn[nH]c3)nc2C1` [Compound 32, 1-(2-(4-(2,4-difluorophenoxy)piperidin-1-yl)-3-(1H-pyrazol-4-yl)-7,8-dihydropyrido[3,4-b]pyrazin-6(5H)-yl)ethan-1-one], for which the IC50 was 100 to 1000 nM on GPR6 (setting [5]) and 1000 to 30000 nM against GPR3 (setting [5]).
Take `CC(C)OC(=O)N1CCc2nc(N3CCC(Oc4ccc(F)cc4F)CC3)c(-c3cn[nH]c3)nc2C1` [Compound 121, propan-2-yl 2-[4-(2,4-difluorophenoxy)piperidin-1-yl]-3-(1H-pyrazol-4-yl)-c5H,6H,7H,8H-pyrido[3,4-b]pyrazine-6-carboxylate]: the values for the concentration for half-maximal inhibition (IC50) on GPR6 (setting [1]) and at GPR3 (setting [2]) were 100 to 1000 nM and 1000 to 30000 nM, respectively.
